Tests used:
Type in all cases: physicochemical
[1] = Etching (dissolution) rate of deposited layers in IPA/water mixed solvent; conditions: IPA 60 wt %; for etching rate of the layer: identical etching conditions
Excerpt: In the present invention, a larger etching rate means a higher dissolution rate. In addition, a larger etching rate means a higher solubility of a layer having a material of interest in the solvent (polar solvent). FIG. 3 is a graph showing thickness changes in the compound 1 and the compound A2 over an etching time. […] On the other hand, the thickness of a layer (layer B) formed of the compound A2 as a heterocyclic compound reduces over time. When the etching rates of the respective layers are calculated with their etching conditions made identical to each other, the etching rate of the layer A is 0.008 nm/sec but the etching rate of the layer B is 0.87 nm/sec, that is, a ratio of the latter to the former is about 100.

[2] = Solubility in IPA/water mixed solvent (FIG. 4); conditions: IPA concentration of 80 wt %
Excerpt: The solubility of a compound as a constituent material for each layer in the IPA/water mixed solvent varies depending on the weight ratio of IPA in the mixed solvent. FIG. 4 is a graph showing the solubilities of the compound 1 (fused polycyclic hydrocarbon compound) and the compound A2 (heterocyclic compound) in the IPA/water mixed solvent (polar solvent). Here, in the graph of FIG. 4, the axis of abscissa indicates the weight percent concentration of IPA in the IPA/water mixed solvent, and the axis of ordinate indicates the amount of the fused polycyclic hydrocarbon compound or heterocyclic compound to dissolve in 1 g of the solvent.

[3] = Etching of sacrificial layer by spin washing method (FIG. 6); conditions: 60-wt % aqueous solution of IPA; thickness by spectroscopic ellipsometer
Excerpt: The spin washing method involves first dropping a polar solvent 81 onto the sacrificial layer 30 (FIG. 5B), holding the resultant for a predetermined time period (FIG. 5C), then rotating the substrate 10 to splash the polar solvent 81, and drying the substrate 10 by means of the rotation (FIG. 5D). The spin washing method in which the process illustrated in FIGS. 5A to 5D is defined as one cycle is typically repeated a plurality of times. It is to be noted that the polar solvents 81 to be used in the cycle to be performed a plurality of times may be the same every time, or mixed solvents having different compositional ratios may be used in part of the times or every time.
(§1) FIG. 6 is a graph showing a relationship between the total time of etching by the spin washing method and the thickness of the sacrificial layer formed of the compound A2. It is to be noted that in the graph of FIG. 6, the compound A2 is used as a constituent material for the sacrificial layer 30 and a 60-wt % aqueous solution of IPA is used as a polar solvent. […] The thickness of the sacrificial layer was measured with a spectroscopic ellipsometer (HORIBA). […] Although the graph shown in FIG. 6 is merely a specific example, the number of repetition of the process based on the spin washing method can be decided by utilizing the quantitative tendency of the sacrificial layer 30 to reduce shown in FIG. 6.

[4] = Etching of sacrificial layer by dipping method (FIG. 9); conditions: 60-wt % aqueous solution of IPA; thickness by spectroscopic ellipsometer
Excerpt: The dipping method is a method involving loading the substrate 10 in a container storing the polar solvent, dipping the substrate 10 in the polar solvent for a certain time period, and then taking the substrate 10 out of the container. Upon dipping of the substrate 10 in the polar solvent, (at least part of) the sacrificial layer 30 is eluted. At this time, when the concentration of the water-soluble polymer material constituting the intermediate layer 40, which can be dissolved together with the sacrificial layer 30, in the polar solvent is low, the polar solvent can be reused as the polar solvent to be used in first dipping.
The dipping method is performed by, for example, a method to be described below. […]
as §1, with “9” for “6”, “dipping” for “spin washing”, “A2.” for “A2. It is to be noted that in the graph of FIG. 6, the compound A2 is used as a constituent material for the sacrificial layer 30 and a 60-wt % aqueous solution of IPA is used as a polar solvent.”, “9. […]” for “6.”

ratio of etching rate of layer B (compound A2) to layer A (compound 1) [1]	rate at which the sacrificial layer is etched by one spin washing [3]	rate at which the sacrificial layer was etched by the dipping method [4]	Structure (SMILES)	etching rate of the layer [1]	amount dissolving in 1 g of the IPA/water mixed solvent [2]
–	–	–	CC1(C)c2cc(-c3ccc4ccc5cccc6ccc3c4c56)ccc2-c2ccc(-c3ccc4ccc5cccc6ccc3c4c56)cc21 [compound 1]	0.008 nm/s	5 µg
about 100	about 6.7 nm	3.7 nm/time	CC1(C)c2ccccc2-c2ccc(-c3ccc4ccc5ccc(-c6ccc7c(c6)C(C)(C)c6ccccc6-7)nc5c4n3)cc21 [compound A2]	0.87 nm/s	73 µg

— patent US8969861B2, “Method of manufacturing organic electroluminescence display device” (Canon Kabushiki Kaisha, priority 2012, dated 2015)
